# Source: patent US20240166669A1, “QUINAZOLINE AMINE DERIVATIVES AS KRAS INHIBITORS” (Nikang Therapeutics, Inc., priority 2021, published 2024)
# Target: T1, K-Ras G12D (Homo sapiens, UniProt P01116, G12D)
# T1 construct: AGS (Cobioer, CBP60476) cell lines which harbor KRAS G12D mutation; host or cells: AGS
# Assay: p-ERK Cellular 2-Plate Assay (Biological Example 2)
# Type: cell-based
# Settings: AGS cells (KRAS G12D), 3 h treatment, AlphaLISA p-ERK1/2, 2-plate; Biological Example 2 (unmarked values); read-out: AGS PERK EC50
# Protocol: The ability of the compound of Formula (IIA′), (II′), or (II) or a pharmaceutically acceptable salt thereof (test compound) to inhibit K-Ras G12D activity was tested using AGS (Cobioer, CBP60476) cell lines which harbor KRAS G12D mutation as described below.
# AGS (Cobioer, CBP60476) were seeded in 384-well plates and cultured overnight (10.000 cells per well 40 μl total volume). The following morning, cells were treated with test compound, with staring concentration at 10 μM and 3-fold dilution down to 0.5 nM for 3 h at 37° C., DMSO treatment served as control. p-ERK was then measured using AlphaLISA SureFire Ultra p-ERK1/2 (Thr202/Tyr204) Assay Kit (Perkin Elmer, cat #ALSU-PERK) following the manufacturer's instruction as follows.
# Briefly, the culture medium was removed and 20 μl 1× lysis buffer was added to each well, followed by 30 minutes incubation on a plate shaker at room temperature. Then 10 μl of lysate was transferred to a white 384-well plate. Acceptor mixture was prepared according to manufacturer's instruction. 5 μl acceptor mixture was added to the cell lysate and the plate was wrapped with foil, spun at 500 rpm for 10 s, and incubated at RT for 60 min. Donor mixture was prepared under subdued light. 5 μl donor mixture was added to the cell lysate and the plate was spun at 500 rpm for 10s and incubated at RT for another 60 min. in the dark. Signal was then measured on a EnVision 2105 multimode plate reader. Percentage inhibition was calculated with DMSO treatment as 100% of signal, and IC50 was calculated by XLfit 5.5.x.
# T1 sequence (P01116 1-188 isoform P01116-2 G12D): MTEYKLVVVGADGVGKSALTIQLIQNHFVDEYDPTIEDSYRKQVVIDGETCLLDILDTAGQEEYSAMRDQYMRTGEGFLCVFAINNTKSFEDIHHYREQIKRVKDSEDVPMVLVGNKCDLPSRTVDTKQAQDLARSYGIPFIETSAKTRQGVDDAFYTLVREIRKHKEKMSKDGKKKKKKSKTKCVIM
row,SMILES,EC50 [nM]
1,"C#Cc1c(F)ccc2cc(O)cc(-c3ncc4c(N5C[C@H]6CC[C@@H](C5)N6)nc(OC[C@@]56CC7COc8ccccc8C7N5C[C@@H](F)C6)nc4c3F)c12 (stereo partly drawn) [Example 41, 4-(4-((1R,5S)-3,8-diazabicyclo[3.2.1]octan-3-yl)-8-fluoro-2-(((9S)-9-fluoro-6a,9,10,11a-tetrahydro-6H,7H-chromeno[3,4-b]pyrrolizin-7a(8H)-yl)methoxy)pyrido[4,3-d]pyrimidin-7-yl)-5-ethynyl-6-fluoronaphthalen-2-ol]",> 100
2,"C#Cc1cccc2cc(O)cc(-c3ncc4c(N5CC6C=C(C#N)C(C5)N6)nc(OCC56CCCN5CCC6)nc4c3F)c12 (stereo not shown) [Example 7, 3-(7-(8-ethynyl-3-hydroxynaphthalen-1-yl)-8-fluoro-2-((tetrahydro-1H-pyrrolizin-7a(5H)-yl)methoxy)pyrido[4,3-d]pyrimidin-4-yl)-3,8-diazabicyclo[3.2.1]oct-6-ene-6-carbonitrile]",260
3,"C#Cc1cccc2cc(O)cc(-c3ncc4c(N5C[C@H]6CC[C@@H](C5)N6)nc(OCC56CCCN5CC(=CF)C6)nc4c3F)c12 (stereo partly drawn) [Example 2, 4-(4-((1R,5S)-3,8-diazabicyclo[3.2.1]octan-3-yl)-8-fluoro-2-((2-(fluoro-methylene)tetrahydro-1H-pyrrolizin-7a(5H)-yl)methoxy)pyrido[4,3-d]pyrimidin-7-yl)-5-ethynylnaphthalen-2-ol]",0.2
4,C#Cc1cccc2cc(O)cc(-c3ncc4c(N5CC6CCC(C5)N6)nc(OC[C@@]56CCCN5[C@@H]5CCOCC5C6)nc4c3F)c12 (mixture of isomers) [Example 23],0.48
5,"C#Cc1cccc2cc(O)cc(-c3ncc4c(N5C[C@H]6CC[C@@H](C5)N6)nc(OC[C@@]56CC7COc8ccccc8C7N5C[C@H](F)C6)nc4c3F)c12 (stereo partly drawn) [Example 40, 4-(4-((1R,5S)-3,8-diazabicyclo[3.2.1]octan-3-yl)-8-fluoro-2-(((9R)-9-fluoro-6a,9,10,11a-tetrahydro-6H,7H-chromeno[3,4-b]pyrrolizin-7a(8H)-yl)methoxy)pyrido[4,3-d]pyrimidin-7-yl)-5-ethynylnaphthalen-2-ol]",3.6
6,"C=C1CN2CCCC2(COc2nc(N3C[C@H]4CC[C@@H](C3)N4)c3cnc(-c4cc(O)cc5cccc(F)c45)c(F)c3n2)C1 (stereo partly drawn) [Example 22, 4-(4-((1R,5S)-3,8-diazabicyclo-[3.2.1]octan-3-yl)-8-fluoro-2-((2-methylenetetrahydro-1H-pyrrolizin-7a(5H)-yl)methoxy)pyrido[4,3-d]-pyrimidin-7-yl)-5-fluoronaphthalen-2-ol]",1
7,"C#Cc1cccc2cc(O)cc(-c3ncc4c(N5CC6NC(C5)C5CC65)nc(OCC56CCCN5CCC6)nc4c3F)c12 (stereo not shown) [Example 9, 5-ethynyl-4-(8-fluoro-2-((tetrahydro-1H-pyrrolizin-7a(5H)-yl)methoxy)-4-(7,9-diazatricyclo[3.3.1.02,4]nonan-7-yl)pyrido[4,3-d]pyrimidin-7-yl)naphthalen-2-ol]",253
8,"C#Cc1cccc2cc(O)cc(-c3ncc4c(N5C[C@H]6CC[C@@H](C5)N6)nc(OCC56CCCN5Cc5c(C(F)(F)F)cccc56)nc4c3F)c12 (stereo partly drawn) [Example 34, 4-(4-((1R,5S)-3,8-diazabicyclo[3.2.1]octan-3-yl)-8-fluoro-2-((6-(trifluoromethyl)-2,3-dihydro-1H-pyrrolo[2,1-a]isoindol-9b(5H)-yl)methoxy)pyrido-[4,3-d]pyrimidin-7-yl)-5-ethynylnaphthalen-2-ol]",25
9,"C#Cc1cccc2cc(O)cc(-c3ncc4c(N5CC6CCC(C5)N6)nc(OCC56CCCN5Cc5cnccc56)nc4c3F)c12 (stereo not shown) [Example 31, 4-(4-(3,8-diazabicyclo[3.2.1]octan-3-yl)-2-((6,7-dihydro-5H-pyrido[4,3-a]pyrrolizin-4b(9H)-yl)methoxy)-8-fluoropyrido[4,3-d]pyrimidin-7-yl)-5-ethynylnaphthalen-2-ol]",4.1
10,C#Cc1cccc2cc(O)cc(-c3ncc4c(N5CC6CCC(C5)N6)nc(OC[C@]56CCCN5[C@H]5c7ccccc7OCC5C6)nc4c3F)c12 (mixture of isomers) [Example 39],0.25
11,C#Cc1cccc2cc(O)cc(-c3ncc4c(N5CC6CCC(C5)N6)nc(OC[C@]56CCCN5[C@H]5c7ccnn7CC5C6)nc4c3F)c12 (mixture of isomers) [Example 37],6.6
12,"C#Cc1cccc2cc(O)cc(-c3ncc4c(N5C[C@H]6CC[C@@H](C5)N6)nc(OCC56CCCN5Cc5c(OC)cccc56)nc4c3F)c12 (stereo partly drawn) [Example 29, 4-(4-((1R,5S)-3,8-diazabicyclo-[3.2.1]octan-3-yl)-8-fluoro-2-((6-methoxy-2,3-dihydro-1H-pyrrolo[2,1-a]-isoindol-9b(5H)-yl)methoxy)-pyrido[4,3-d]-pyrimidin-7-yl)-5-ethynylnaphthalen-2-ol]",2
13,"C#Cc1c(F)ccc2cccc(-c3ncc4c(N5C[C@H]6CC[C@@H](C5)N6)nc(OCC56CCCN5CC(=CC)C6)nc4c3F)c12 (stereo partly drawn) [Example 48, 4-((1R,5S)-3,8-diazabicyclo[3.2.1]octan-3-yl)-2-((2-ethylidenetetrahydro-1H-pyrrolizin-7a(5H)-yl)methoxy)-7-(8-ethynyl-7-fluoronaphthalen-1-yl)-8-fluoropyrido[4,3-d]pyrimidine]",33
14,"C#Cc1cccc2cc(O)cc(-c3ncc4c(N5C[C@H]6CC[C@@H](C5)N6)nc(OCC56CCCN5c5ccccc5C6)nc4c3F)c12 (stereo partly drawn) [Example 5, 4-(4-((1R,5S)-3,8-diazabicyclo[3.2.1]octan-3-yl)-2-((2,3-dihydro-1H-pyrrolo[1,2-a]-indol-9a(9H)-yl)methoxy)-8-fluoropyrido[4,3-d]pyrimidin-7-yl)-5-ethynylnaphthalen-2-ol]",320
15,"C#Cc1c(F)ccc2cccc(-c3ncc4c(N5C[C@H]6CC[C@@H](C5)N6)nc(OCC56CCCN5CC(=C)C6)nc4c3F)c12 (stereo partly drawn) [Example 11, 4-((1R,5S)-3,8-diazabicyclo[3.2.1]octan-3-yl)-7-(8-ethynyl-7-fluoronaphthalen-1-yl)-8-fluoro-2-((2-methylenetetrahydro-TH-pyrrolizin-7a(5H)-yl)methoxy)pyrido[4,3-d]pyrimidine]",7
16,"C#Cc1cccc2cc(O)cc(-c3ncc4c(N5C[C@H]6CC[C@@H](C5)N6)nc(OCC56CCCN5Cc5ccccc56)nc4c3F)c12 (stereo partly drawn) [Example 6, 4-(4-((1R,5S)-3,8-diazabicyclo[3.2.1]octan-3-yl)-2-((2,3-dihydro-1H-pyrrolo[2,1-a]-isoindol-9b(5H)-yl)methoxy)-8-fluoropyrido[4,3-d]pyrimidin-7-yl)-5-ethynylnaphthalen-2-ol]",0.6
17,C#Cc1cccc2cc(O)cc(-c3ncc4c(N5CC6CCC(C5)N6)nc(OC[C@]56CCCN5[C@H]5c7cccnc7OCC5C6)nc4c3F)c12 (mixture of isomers) [Example 38],1.1
18,"C#Cc1cccc2cc(O)cc(-c3ncc4c(N5C[C@H]6CC[C@@H](C5)N6)nc(OCC56CCCN5CC(=C)C6)nc4c3F)c12 (stereo partly drawn) [Example 1, 4-(4-((1R,5S)-3,8-diazabicyclo[3.2.1]octan-3-yl)-8-fluoro-2-((2-methylene-tetrahydro-1H-pyrrolizin-7a(5H)-yl)methoxy)pyrido[4,3-d]pyrimidin-7-yl)-5-ethynyl-naphthalen-2-ol]",0.2
19,"C#Cc1cccc2cc(O)cc(-c3c(Cl)cc4c(N5C[C@H]6CC[C@@H](C5)N6)nc(OCC56CCCN5CC(=C)C6)nc4c3F)c12 (stereo partly drawn) [Example 56, 4-(4-((1R,5S)-3,8-diazabicyclo[3.2.1]octan-3-yl)-6-chloro-8-fluoro-2-((2-methylenetetrahydro-1H-pyrrolizin-7a(5H)-yl)methoxy)quinazolin-7-yl)-5-ethynylnaphthalen-2-ol]",1.3
